# Values quoted from earlier work in US20230346708A1, “STABLE FORMULATIONS OF ANTI-CANCER PEPTIDES” (Oncolyze, Inc., priority 2020, published 2023).
# Tested on: cancer cells
# Conditions: cancer cells vs normal cells; general statement, no data shown
sequence,measurement,value
"ETFSDLWKLLKKWKMRRNQFWVKVQRG [PNC-28, p53 aa17-26-MRP anti-cancer peptide]",Tumor cell necrosis,"induce tumor cell necrosis of cancer cells, but not normal cells"
